{"source": "patent US9717775B2", "about": "(priority 2006, dated 2017)", "key": {"α6/α3β4 nAChR": {"system": "α6/α3β4 nAChR", "type": "cell-based, rat"}, "α6/α3β2β3 nAChR": {"system": "α6/α3β2β3 nAChR", "type": "cell-based, rat"}, "α9α10 nAChR": {"molecular_target": "α9α10 nAChR (Rattus norvegicus, UniProt P43144+Q9JLB5)", "sequence (P43144 26-479 limits assumed)": "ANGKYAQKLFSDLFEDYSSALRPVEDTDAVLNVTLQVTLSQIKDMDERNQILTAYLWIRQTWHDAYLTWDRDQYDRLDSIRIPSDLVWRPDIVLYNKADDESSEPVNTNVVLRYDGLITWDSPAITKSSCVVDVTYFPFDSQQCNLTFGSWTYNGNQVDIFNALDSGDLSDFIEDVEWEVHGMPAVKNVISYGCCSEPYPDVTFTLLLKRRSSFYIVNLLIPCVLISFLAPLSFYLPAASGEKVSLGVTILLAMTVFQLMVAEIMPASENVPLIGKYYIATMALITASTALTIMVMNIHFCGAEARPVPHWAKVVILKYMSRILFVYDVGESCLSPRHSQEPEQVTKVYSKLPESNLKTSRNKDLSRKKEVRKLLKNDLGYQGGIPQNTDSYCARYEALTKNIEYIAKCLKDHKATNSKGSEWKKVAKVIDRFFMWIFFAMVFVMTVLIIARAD", "sequence (Q9JLB5 25-447 limits assumed)": "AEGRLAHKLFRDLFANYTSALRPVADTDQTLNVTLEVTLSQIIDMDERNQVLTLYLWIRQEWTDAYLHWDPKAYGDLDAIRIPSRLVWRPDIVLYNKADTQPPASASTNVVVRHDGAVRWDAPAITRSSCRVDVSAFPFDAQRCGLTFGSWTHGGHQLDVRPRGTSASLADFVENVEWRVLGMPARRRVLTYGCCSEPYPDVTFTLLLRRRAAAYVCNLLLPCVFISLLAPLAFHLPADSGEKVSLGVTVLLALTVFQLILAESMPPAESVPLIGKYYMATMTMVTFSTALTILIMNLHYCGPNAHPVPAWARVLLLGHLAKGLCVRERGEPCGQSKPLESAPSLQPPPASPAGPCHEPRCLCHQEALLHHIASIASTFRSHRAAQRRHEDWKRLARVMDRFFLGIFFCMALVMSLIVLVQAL", "type": "cell-based"}}, "data": [{"substance": "α-conotoxin Vc1.1 [reference compound]", "values": [{"measurement": "IC50", "setting": "α6/α3β4 nAChR", "value": 982, "unit": "nM"}, {"measurement": "IC50", "setting": "α6/α3β2β3 nAChR", "value": 144, "unit": "nM"}, {"measurement": "Hill slope", "setting": "α9α10 nAChR", "value": "0.702±0.11"}, {"measurement": "IC50", "setting": "α9α10 nAChR", "value": 22.9, "unit": "nM"}]}]}
